Assay results from PubChem BioAssay (NCI).
“And” between values parts separate entries of the source, which are not always exact repeats. Identical values can stand only once.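 48-hour exposure; five concentrations; linearly interpolated endpoints. GI50 is the concentration that inhibits growth by half. Definition used: TGI = concentration required for complete inhibition of growth.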

Experiments:
Test in all cases: inhibition of tumour cell growth, NCI panel, 48 h
NCI-H460 lung = tested on: NCI-H460 lung
M19-MEL melanoma = tested on: M19-MEL melanoma
MALME-3M melanoma = tested on: MALME-3M melanoma
SF-268 CNS = tested on: SF-268 CNS
HOP-92 NSCLC = tested on: HOP-92 NSCLC
DMS 273 small cell lung = tested on: DMS 273 small cell lung
SN12C renal = tested on: SN12C renal
COLO 205 colon = tested on: COLO 205 colon
OVCAR-5 ovarian = tested on: OVCAR-5 ovarian

SMILES	TGI (NCI-H460 lung)	TGI (M19-MEL melanoma)	TGI (MALME-3M melanoma)	TGI (SF-268 CNS) [µM]	TGI (HOP-92 NSCLC)	TGI (DMS 273 small cell lung)	TGI (SN12C renal) [µM]	TGI (COLO 205 colon) [µM]	TGI (OVCAR-5 ovarian) [µM]	GI50 (NCI-H460 lung) [µM]	GI50 (M19-MEL melanoma) [µM]	GI50 (MALME-3M melanoma) [µM]	GI50 (SF-268 CNS) [µM]	GI50 (HOP-92 NSCLC) [µM]	GI50 (DMS 273 small cell lung) [µM]	GI50 (SN12C renal) [µM]	GI50 (COLO 205 colon) [µM]	GI50 (OVCAR-5 ovarian) [µM]
C=C(C(=C)N1N=NC2C3CCC(C3)C21)N1N=NC2C3CCC(C3)C21 (stereo unspecified)	> 100 µM	> 100 µM	> 100 µM	> 100	> 100 µM	> 100 µM	> 100	> 100	> 100	–	–	–	–	–	–	–	–	–
CC(C)(C)c1ccc(OCCOCCOc2ccc(C(C)(C)C)cc2S(=O)(=O)Nc2ccc([N+](=O)[O-])cc2)c(S(=O)(=O)Nc2ccc([N+](=O)[O-])cc2)c1	> 100 µM	> 100 µM	> 100 µM	> 100	72.3 µM	> 100 µM	> 100	> 100	> 100	–	–	–	–	–	–	–	–	–
C=C1CC2CC(O)CC(C1)C2 (stereo unspecified)	> 100 µM	> 100 µM	> 100 µM	> 100	> 100 µM	> 100 µM	> 100	> 100	> 100	–	–	–	–	–	–	–	–	–
COc1ccc(/C=C2\CCC(CCN(C)C)(C3=CCCC3)C2=O)cc1Br (stereo unspecified)	25.6 µM	7.86 µM	28 µM	23	11.3 µM	14.6 µM	22	3.01	27.1	–	–	–	–	–	–	–	–	–
O=C(N/N=C1\C(=O)N(c2nccs2)C(=O)C(=O)C1c1nc2ccccc2s1)c1ccccc1O (stereo unspecified)	> 100 µM	> 100 µM	> 100 µM	> 100	> 100 µM	> 100 µM	> 100	> 100	> 100	–	–	–	–	–	–	–	–	–
C=C1C(OC(=O)/C=C/c2ccccc2)CC(OC(C)=O)C2(C)C1CC1CC(OC(C)=O)C(C)=C(C(OC(C)=O)C2OC(C)=O)C1(C)C (stereo unspecified)	> 100 µM	> 100 µM	> 100 µM	> 100	> 100 µM	> 100 µM	> 100	> 100	> 100	–	–	–	–	–	–	–	–	–
COC(=O)C12OCC34C(CC5C(C)C6=CC(=O)OC6=CC5(C)C3C(O)C1O)OC(=O)C(O)C24 (stereo unspecified)	0.716 µM and 1.18 µM	0.723 µM and 2.2 µM	0.351 µM and 0.665 µM	3.34	0.525 µM and 2.33 µM	0.528 µM and 0.359 µM	34.1	–	20.3	0.0616	0.133	0.0896	0.287	0.146	0.0707	0.416	0.252	0.599
C/C=C(\CCOS(=O)(=O)c1ccc(C)cc1)[Si](C)(C)C	> 100 µM	> 100 µM	> 100 µM	> 100	> 100 µM	> 100 µM	> 100	> 100	> 100	–	–	–	–	–	–	–	–	–
O=C1C2C(C(=O)N1c1ccccc1)C1([N+](=O)[O-])C=C3c4ccccc4N(C(=O)c4ccccc4)C32C2C(=O)N(c3ccccc3)C(=O)C21 (stereo unspecified)	> 100 µM	> 100 µM	> 100 µM	> 100	> 100 µM	> 100 µM	> 100	> 100	> 100	–	–	–	–	–	–	–	–	–
NC1=NN(c2ccccc2)C(=O)C1C(=O)C(=O)Nc1nccs1 (stereo unspecified)	> 100 µM	> 100 µM	> 100 µM	> 100	> 100 µM	> 100 µM	> 100	> 100	> 100	–	–	–	–	–	–	–	–	–
Cc1cccc(C(C)(C)C)c1NC(=O)CCc1nc(=S)[nH][nH]1	> 100 µM	> 100 µM	> 100 µM	> 100	> 100 µM	> 100 µM	> 100	> 100	> 100	–	–	–	–	–	–	–	–	–
O=C(CC(=O)c1cccc2ccccc12)C(=O)NC1C2CC3CC(C2)CC1C3 (stereo unspecified)	> 100 µM	> 100 µM	> 100 µM	> 100	> 100 µM	> 100 µM	> 100	> 100	> 100	–	–	–	–	–	–	–	–	–
